Measured values as given in PubChem BioAssay (NCI).
Values joined by “and” are separate entries in the source; they are usually repeats but may differ in a detail not shown here. Equal values may be shown once.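 Test compounds were applied to cells in 96-well plates for 48 hours at 5 doses. The concentration for 50% growth inhibition is given as GI50. The concentration for full growth arrest is given as TGI.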

Legend:
Experiment in all cases: NCI tumour cell line growth inhibition, 48 h
SF-539 CNS = tested on: SF-539 CNS
MDA-MB-435 = tested on: MDA-MB-435
PC-3 prostate = tested on: PC-3 prostate
RXF 393 renal = tested on: RXF 393 renal
HL-60(TB) leukemia = tested on: HL-60(TB) leukemia
MALME-3M melanoma = tested on: MALME-3M melanoma
UACC-257 melanoma = tested on: UACC-257 melanoma
KM12 colon = tested on: KM12 colon

SMILES	GI50 (SF-539 CNS)	TGI (SF-539 CNS)	GI50 (MDA-MB-435)	TGI (MDA-MB-435)	GI50 (PC-3 prostate)	TGI (PC-3 prostate)	GI50 (RXF 393 renal)	TGI (RXF 393 renal)	GI50 (HL-60(TB) leukemia)	TGI (HL-60(TB) leukemia)	GI50 (MALME-3M melanoma)	TGI (MALME-3M melanoma)	GI50 (UACC-257 melanoma)	TGI (UACC-257 melanoma)	GI50 (KM12 colon)	TGI (KM12 colon)
CCCCCCCCCCCCNC(=O)[C@H]1CSC(c2ccsc2)N1 (some centres not stated)	0.902 µM	1.7 µM	0.68 µM	1.35 µM	0.837 µM	1.56 µM	0.96 µM	1.69 µM	0.91 µM	2.31 µM	1.14 µM	2.12 µM	0.946 µM	1.7 µM	0.868 µM	1.64 µM
Cc1cc(Nc2cc(N3CCN(C)CC3)nc(C#Cc3ccccc3)n2)n[nH]1	2.79 µM	10.8 µM	3.24 µM	16.1 µM	3.17 µM	25.4 µM	1.18 µM	3.79 µM	2.52 µM	14.8 µM	2 µM	13.9 µM	3.58 µM	15.9 µM	0.35 µM	11.7 µM
COc1ccc(-c2nc(/C=N/Nc3cc(C)nc4ccc(Br)cc34)c(C)o2)cc1	1.83 µM	3.3 µM	1.68 µM	3.1 µM	1.67 µM	3.2 µM	1.44 µM	2.93 µM	1.49 µM	3.47 µM	1.98 µM	3.67 µM	1.94 µM	3.57 µM	1.8 µM	3.62 µM
Oc1cccc(-c2nc(N3CCOCC3)c3oc4ncccc4c3n2)c1	0.137 µM and 0.131 µM	0.594 µM and 0.635 µM	0.122 µM and 0.0675 µM	0.847 µM and 0.784 µM	0.0505 µM and 0.0462 µM	> 100 µM	0.0796 µM and 0.116 µM	0.361 µM and 0.55 µM	0.117 µM and 0.364 µM	–	0.0373 µM and 0.0287 µM	0.395 µM and 0.264 µM	0.593 µM and 0.421 µM	3.39 µM and 3.79 µM	0.286 µM and 0.297 µM	> 100 µM
O=C(O)C(Cc1c[nH]c2ccccc12)N1C(=O)c2ccccc2C1=O (configuration not stated)	–	> 100 µM	–	> 100 µM	–	> 100 µM	–	> 100 µM	–	–	–	> 100 µM	–	> 100 µM	–	> 100 µM
COc1ccc(C2NC(=S)NC3=C2COc2ccc(F)cc23)cc1OC (configuration not stated)	28.3 µM	67.4 µM	12.3 µM	38.5 µM	14.2 µM	87.9 µM	18.9 µM	60.8 µM	18.5 µM	50.7 µM	–	–	14.2 µM	45.4 µM	25.9 µM	> 100 µM
O=C(/C(=N/Nc1cn[nH]c(=O)c1Cl)c1ccccc1)c1ccccc1	–	71.1 µM	–	32.6 µM	–	> 100 µM	–	47.3 µM	–	> 100 µM	–	> 100 µM	–	80.2 µM	–	32.9 µM
C=C[C@@]1(C)CC(=O)[C@]2(O)[C@@]3(C)[C@@H](O)CCC(C)(C)[C@@H]3[C@H](O)[C@@H](OC(C)=O)[C@@]2(C)O1	–	> 100 µM	–	> 100 µM	–	> 100 µM	–	> 100 µM	–	> 100 µM	–	> 100 µM	–	> 100 µM	–	> 100 µM
Cc1cc(C)c2nccc(NCCCN(C)C)c2c1[N+](=O)[O-]	–	84.8 µM	–	> 100 µM	–	> 100 µM	–	47.8 µM	–	78.1 µM	–	36.4 µM	–	33.7 µM	–	> 100 µM
COc1ccc(-c2nn3ncccc3c2-c2ccnc(Nc3cccc(C(F)(F)F)c3)n2)cc1	13.8 µM	> 25 µM	10.1 µM	> 25 µM	7.25 µM	> 25 µM	5.76 µM	24.5 µM	8.74 µM	> 25 µM	10.2 µM	> 25 µM	9.34 µM	> 25 µM	9.33 µM	> 25 µM
COc1ccc(-c2conc2-c2ccccc2)cc1	0.272 µM	3.87 µM	–	–	0.363 µM	> 100 µM	0.249 µM	> 100 µM	0.288 µM	1.41 µM	4.95 µM	> 80.1 µM	18.3 µM	> 100 µM	0.108 µM	11 µM
COC12C=C/C(=C(/C(=O)OCc3csc(SC)n3)C(=O)CCCCCCCCC3(OC)C=C/C(=C(/C(=O)OCc4cnc(SC)s4)C(=O)CCCCCCCC1)O3)O2 (configuration not stated)	4.03 µM	19.8 µM	1.68 µM	5.32 µM	4.16 µM	> 100 µM	1.75 µM	3.52 µM	3.1 µM	> 100 µM	3.84 µM	39.7 µM	6.01 µM	> 100 µM	3.1 µM	> 100 µM
CCOC(=O)C(=Cc1c(-c2ccccc2)[nH]c2ccccc12)C(=O)OCC	14.4 µM	30.9 µM	3.36 µM	13.6 µM	3.19 µM	14.3 µM	3.1 µM	12.1 µM	4.19 µM	35.5 µM	8.09 µM	22.3 µM	7.33 µM	19.3 µM	3.51 µM	12 µM
COc1ccc2c(c1)c(-c1cc(-c3cn(C)c4ccc(OC)cc34)[nH]n1)cn2C	> 100 µM	> 100 µM	> 100 µM	> 100 µM	> 100 µM	> 100 µM	> 100 µM	> 100 µM	> 100 µM	> 100 µM	> 100 µM	> 100 µM	> 100 µM	> 100 µM	> 100 µM	> 100 µM
Cc1cc2c(-c3nc4ccccn4c3NC34CC5CC(CC(C5)C3)C4)c(O)c(O)cc2c(O)c1-c1c(C)cc2c(-c3nc4ccccn4c3NC34CC5CC(CC(C5)C3)C4)c(O)c(O)cc2c1O	0.671 µM	2.98 µM	0.552 µM	> 25 µM	0.231 µM	11.9 µM	0.464 µM	2.63 µM	0.789 µM	11.5 µM	0.574 µM	> 25 µM	1 µM	> 25 µM	0.11 µM	11.7 µM
NCCn1c2c(c3ccccc3c1=O)C(=O)c1ccccc1-2	0.211 µM	1.06 µM	0.897 µM	2.51 µM	1.11 µM	8.73 µM	1.87 µM	6.55 µM	0.162 µM	0.611 µM	0.577 µM	3.2 µM	0.64 µM	2.64 µM	0.325 µM	2.38 µM
CCCC(=O)Nc1cn(COC)c(C(=O)N2C[C@H]3C[C@@]34C2=CC(=O)c2[nH]cc(C)c24)n1	1.87 µM	37.7 µM and 38.4 µM	13.4 µM	26.2 µM and > 100 µM	–	50 µM and > 100 µM	3.05 µM	26.9 µM and 8.82 µM	–	–	4.22 µM	9.45 µM and 26 µM	10.5 µM	18.7 µM and 83.3 µM	8.81 µM	> 100 µM

SMILES	GI50 (SF-539 CNS)	TGI (SF-539 CNS)	GI50 (MDA-MB-435)	TGI (MDA-MB-435)	GI50 (PC-3 prostate)	TGI (PC-3 prostate)	GI50 (RXF 393 renal)	TGI (RXF 393 renal)	GI50 (HL-60(TB) leukemia)	TGI (HL-60(TB) leukemia)	GI50 (MALME-3M melanoma)	TGI (MALME-3M melanoma)	GI50 (UACC-257 melanoma)	TGI (UACC-257 melanoma)	GI50 (KM12 colon)	TGI (KM12 colon)
O=c1c2ccccc2c(=O)c2c1sc1c(=O)c3ccc(O)cc3c(=O)c12	0.245 µM	0.661 µM	0.173 µM	0.326 µM	–	–	1.63 µM	4.3 µM	2.38 µM	9.77 µM	0.152 µM	0.318 µM	0.28 µM	0.736 µM	2.05 µM	8.24 µM
N#Cc1c(-c2ccc(Cl)cc2)csc1NC(=O)Nc1cccc(C(F)(F)F)c1	2.06 µM	4.85 µM	2.73 µM	10.3 µM	2.43 µM	11.5 µM	2.33 µM	5.96 µM	2.43 µM	6.69 µM	–	–	2.53 µM	6.74 µM	2.64 µM	9.9 µM
CNc1ccc(N=Nc2cccc3ncccc23)cc1	63.8 µM	> 100 µM	19.7 µM	> 100 µM	15.3 µM	> 100 µM	28.7 µM	> 100 µM	4.88 µM	> 100 µM	> 58.4 µM	> 100 µM	> 92.8 µM	> 100 µM	34.3 µM	> 100 µM
COc1ccc(-c2cn(-c3cc(OC)c(OC)c(OC)c3)c(=O)n2-c2ccccc2)cc1	> 100 µM	> 100 µM	> 100 µM	> 100 µM	> 100 µM	> 100 µM	45.4 µM	> 100 µM	28.1 µM	> 100 µM	38.5 µM	> 100 µM	> 100 µM	> 100 µM	> 100 µM	> 100 µM
O=C1Nc2ccc(Br)cc2C1=Nc1ccc(Cl)cc1	–	19.4 µM	–	20.6 µM	–	> 100 µM	–	40.1 µM	–	39 µM	–	48.5 µM	–	79.1 µM	–	24.8 µM
CC[C@H](C)[C@H](NC(=O)N[C@@H](C)c1ccccc1)C(=O)N(C)[C@H](C[C@@H](OC(C)=O)c1nc(C(=O)N[C@@H](Cc2ccccc2)C[C@H](C)C(=O)OC)cs1)C(C)C	20.2 µM	56.6 µM	3.27 µM	13.3 µM	27.5 µM	> 100 µM	13.9 µM	57.3 µM	–	–	> 100 µM	> 100 µM	> 100 µM	> 100 µM	17.2 µM	84.3 µM
N#CC1=C(N)NC(=S)C(C#N)C12Nc1ccccc1S2 (configuration not stated)	–	–	17.2 µM	44.7 µM	41 µM	> 100 µM	27.7 µM	57.5 µM	35.1 µM	> 100 µM	30.5 µM	84 µM	19.6 µM	35.4 µM	24.8 µM	> 100 µM
O=C(O)C(O)c1ccc(F)cc1 (configuration not stated)	–	–	–	> 100 µM	–	> 100 µM	–	> 100 µM	–	–	–	> 100 µM	–	> 100 µM	–	> 100 µM
Cc1cc(S(N)(=O)=O)c(S/C(=N\NS(=O)(=O)c2ccccc2)c2ccc(Cl)c(Cl)c2)cc1Cl	19.3 µM	64.3 µM	42.9 µM	> 100 µM	47.4 µM	> 100 µM	33.3 µM	> 100 µM	21.7 µM	53.4 µM	–	–	40.3 µM	> 100 µM	42 µM	> 100 µM
CCOC(=O)/N=c1\ssc(Cl)c1Cl	2.87 µM	8.97 µM	15.2 µM	30.8 µM	15.8 µM	36 µM	3.01 µM	10.6 µM	6.41 µM	> 100 µM	–	–	15.3 µM	30.7 µM	16.7 µM	35.9 µM
N=C(N)SCC(=O)O	–	> 100 µM	–	> 100 µM	–	> 100 µM	–	> 100 µM	–	–	–	> 100 µM	–	> 100 µM	–	> 100 µM
CC(C)(C)OC(=O)n1c(Cl)c(C(=O)N=C=S)c2ccccc21	23 µM	55.1 µM	80.8 µM	> 100 µM	24.2 µM	> 100 µM	53.4 µM	> 100 µM	24.4 µM	> 100 µM	–	–	55.4 µM	> 100 µM	18.4 µM	52 µM
C/C(=N\O)[C@H]1CC[C@@]2(C)[C@@H]3CC[C@H]4C(C)(C)/C(=N/O)CC[C@@]45CC35CC[C@]12C (some centres not stated)	3.14 µM	6.72 µM	–	–	2.33 µM	6.9 µM	4.02 µM	9.67 µM	1.62 µM	> 16.7 µM	–	–	5.53 µM	10.1 µM	2.84 µM	7.03 µM
Cc1cc(C(=O)Nc2cc(Nc3ncccc3-c3ncnc4nc[nH]c34)ccc2F)cc(C(C)(C)C#N)c1	1.19 µM	> 63.8 µM	0.182 µM	> 100 µM	7.13 µM	> 100 µM	4.82 µM	42 µM	0.167 µM	> 100 µM	–	–	0.0867 µM	> 100 µM	2.9 µM	> 100 µM
COc1cc(/C=C2\C(=O)Nc3ccc(Br)cc32)cc(OC)c1OC	26.7 µM	> 100 µM	2.02 µM	7.19 µM	3.92 µM	> 100 µM	–	–	4.36 µM	> 100 µM	0.606 µM	16.8 µM	> 50.7 µM	> 100 µM	3.33 µM	> 92.4 µM
N#CC1=C(N)Oc2c(sc3c(Br)cccc23)C1c1ccc(F)cc1 (configuration not stated)	–	–	0.0691 µM	11.2 µM	0.405 µM	18.1 µM	–	–	0.204 µM	1.02 µM	–	–	13 µM	42.7 µM	0.361 µM	15.2 µM
